# pIC50: −log10 of the molar value.
# Experiments:
# [1] = test system: NCI-H522; assay: Growth inhibition of human NCI-H522 cells incubated for 48 hrs by sulforhodamine B assay; assay type: functional, cell-based; details: NCI-H522, 48 h
# [2] = test system: Malme-3M; assay: Growth inhibition of human MALME-3M cells assessed as cell growth at 0.1 uM incubated for 48 hrs by sulforhodamine B assay relative to control; assay type: functional; details: read-out: Activity
# [3] = test system: SF-268; assay: Growth inhibition of human SF268 cells assessed as cell growth at 100 uM incubated for 48 hrs by sulforhodamine B assay relative to control; assay type: functional; details: SF-268, 48 h, read-out: Activity
# [4] = test system: UACC-62; assay: Growth inhibition of human UACC62 cells incubated for 48 hrs by sulforhodamine B assay; assay type: functional, cell-based; details: UACC-62, 48 h
# [5] = test system: IGROV-1; assay: Growth inhibition of human IGROV1 cells assessed as cell growth at 1 uM incubated for 48 hrs by sulforhodamine B assay relative to control; assay type: functional; details: IGROV-1, 48 h, read-out: Activity
# [6] = test system: OVCAR-5; assay: Growth inhibition of human OVCAR5 cells incubated for 48 hrs by sulforhodamine B assay; assay type: functional, cell-based; details: OVCAR-5, 48 h
# [7] = test system: UACC-62; assay: Growth inhibition of human UACC62 cells assessed as cell growth at 100 uM incubated for 48 hrs by sulforhodamine B assay relative to control; assay type: functional; details: UACC-62, 48 h, read-out: Activity
# [8] = test system: KM12; assay: Growth inhibition of human KM12 cells assessed as cell growth at 1 uM incubated for 48 hrs by sulforhodamine B assay relative to control; assay type: functional; details: KM12, 48 h, read-out: Activity
# [9] = test system: CCRF-CEM; assay: Growth inhibition of human CCRF-CEM cells assessed as cell growth at 100 uM incubated for 48 hrs by sulforhodamine B assay relative to control; assay type: functional; details: read-out: Activity
# [10] = test system: UACC-62; assay: Growth inhibition of human UACC62 cells assessed as cell growth at 0.01 uM incubated for 48 hrs by sulforhodamine B assay relative to control; assay type: functional; details: UACC-62, 48 h, read-out: Activity
# [11] = test system: OVCAR-4; assay: Growth inhibition of human OVCAR4 cells incubated for 48 hrs by sulforhodamine B assay; assay type: functional, cell-based; details: OVCAR-4, 48 h
# [12] = test system: OVCAR-5; assay: Growth inhibition of human OVCAR5 cells assessed as cell growth at 100 uM incubated for 48 hrs by sulforhodamine B assay relative to control; assay type: functional; details: OVCAR-5, 48 h, read-out: Activity
# [13] = test system: SNB-19; assay: Growth inhibition of human SNB19 cells assessed as cell growth at 100 uM incubated for 48 hrs by sulforhodamine B assay relative to control; assay type: functional; details: SNB-19, 48 h, read-out: Activity
# [14] = test system: K562; assay: Growth inhibition of human K562 cells incubated for 48 hrs by sulforhodamine B assay; assay type: functional, cell-based; details: K562, 48 h
# [15] = test system: OVCAR-8; assay: Growth inhibition of human OVCAR8 cells assessed as cell growth at 1 uM incubated for 48 hrs by sulforhodamine B assay relative to control; assay type: functional; details: OVCAR-8, 48 h, read-out: Activity
# [16] = test system: CCRF-CEM; assay: Growth inhibition of human CCRF-CEM cells assessed as cell growth at 0.01 uM incubated for 48 hrs by sulforhodamine B assay relative to control; assay type: functional; details: read-out: Activity
# [17] = test system: SF-268; assay: Growth inhibition of human SF268 cells incubated for 48 hrs by sulforhodamine B assay; assay type: functional, cell-based; details: SF-268, 48 h
# [18] = test system: OVCAR-4; assay: Growth inhibition of human OVCAR4 cells assessed as cell growth at 0.1 uM incubated for 48 hrs by sulforhodamine B assay relative to control; assay type: functional; details: OVCAR-4, 48 h, read-out: Activity
# [19] = test system: U-251; assay: Growth inhibition of human U251 cells assessed as cell growth at 0.1 uM incubated for 48 hrs by sulforhodamine B assay relative to control; assay type: functional; details: U-251, 48 h, read-out: Activity
# [20] = test system: M14; assay: Growth inhibition of human M14 cells assessed as cell growth at 0.01 uM incubated for 48 hrs by sulforhodamine B assay relative to control; assay type: functional; details: M14, 48 h, read-out: Activity
# [21] = test system: SK-MEL-28; assay: Growth inhibition of human SK-MEL-28 cells assessed as cell growth at 100 uM incubated for 48 hrs by sulforhodamine B assay relative to control; assay type: functional; details: SK-MEL-28, 48 h, read-out: Activity
# [22] = test system: SK-MEL-2; assay: Growth inhibition of human SK-MEL-2 cells assessed as cell growth at 0.1 uM incubated for 48 hrs by sulforhodamine B assay relative to control; assay type: functional; details: SK-MEL-2, 48 h, read-out: Activity
# [23] = test system: BT-549; assay: Growth inhibition of human BT549 cells assessed as cell growth at 0.01 uM incubated for 48 hrs by sulforhodamine B assay relative to control; assay type: functional; details: BT-549, 48 h, read-out: Activity
# [24] = test system: U-251; assay: Growth inhibition of human U251 cells assessed as cell growth at 100 uM incubated for 48 hrs by sulforhodamine B assay relative to control; assay type: functional; details: U-251, 48 h, read-out: Activity
# [25] = test system: RPMI-8226; assay: Growth inhibition of human RPMI8226 cells assessed as cell growth at 0.1 uM incubated for 48 hrs by sulforhodamine B assay relative to control; assay type: functional; details: RPMI-8226, 48 h, read-out: Activity
# [26] = test system: COLO 205; assay: Growth inhibition of human COLO205 cells incubated for 48 hrs by sulforhodamine B assay; assay type: functional, cell-based; details: COLO 205, 48 h
# [27] = test system: LOX IMVI; assay: Growth inhibition of human LOXIMVI cells assessed as cell growth at 0.1 uM incubated for 48 hrs by sulforhodamine B assay relative to control; assay type: functional; details: read-out: Activity
# [28] = test system: PC-3; assay: Growth inhibition of human PC3 cells assessed as cell growth at 0.01 uM incubated for 48 hrs by sulforhodamine B assay relative to control; assay type: functional; details: PC-3, 48 h, read-out: Activity
# [29] = read-out: LC50 (the source's name)
# [30] = read-out: pLC50 (the source's name) (converted)
compound,measurement,setting,value
O=C(Nc1cccc(-n2cc(-c3ccncc3)c(-c3cc(O)cc(Cl)c3)n2)c1)c1ccc(N2CCOCC2)c(C(F)(F)F)c1,GI50,[1]; read-out: GI50,0.934 µM
same,CC50,[1]; [29],> 100 µM
same,TGI,[1]; read-out: TGI,12.1 µM
same,GI50,[1]; read-out: pGI50 (converted),0.933 µM
same,CC50,[1]; [30],> 100 µM
same,TGI,[1]; read-out: pTGI (converted),12 µM
same,growth at 0.1 µM,[2],85%
same,growth at 100 µM,[3],38%
same,pIC50,[4],5.76
same,GI50,[4]; read-out: GI50,1.72 µM
same,CC50,[4]; [29],> 100 µM
same,TGI,[4]; read-out: TGI,93.8 µM
same,GI50,[4]; read-out: pGI50 (converted),1.74 µM
same,CC50,[4]; [30],> 100 µM
same,TGI,[4]; read-out: pTGI (converted),9.33 µM
same,growth at 1 µM,[5],91%
same,GI50,[6]; read-out: GI50,14.8 µM
same,CC50,[6]; [29],> 100 µM
same,TGI,[6]; read-out: TGI,39.6 µM
same,GI50,[6]; read-out: pGI50 (converted),14.8 µM
same,CC50,[6]; [30],> 100 µM
same,TGI,[6]; read-out: pTGI (converted),39.8 µM
same,growth at 100 µM,[7],-31%
same,growth at 1 µM,[8],54%
same,growth at 100 µM,[9],2%
same,growth at 0.01 µM,[10],96%
same,GI50,[11]; read-out: GI50,> 100 µM
same,CC50,[11]; [29],> 100 µM
same,TGI,[11]; read-out: TGI,> 100 µM
same,GI50,[11]; read-out: pGI50 (converted),> 100 µM
same,CC50,[11]; [30],> 100 µM
same,TGI,[11]; read-out: pTGI (converted),> 100 µM
same,growth at 100 µM,[12],-47%
same,growth at 100 µM,[13],-12%
same,GI50,[14]; read-out: GI50,0.554 µM
same,LC50,[14]; read-out: LC50,> 100 µM
same,TGI,[14]; read-out: TGI,40.8 µM
same,GI50,[14]; read-out: pGI50 (converted),0.562 µM
same,LC50,[14]; read-out: pLC50 (converted),> 100 µM
same,TGI,[14]; read-out: pTGI (converted),4.9 µM
same,growth at 1 µM,[15],57%
same,growth at 0.01 µM,[16],98%
same,GI50,[17]; read-out: GI50,5.51 µM
same,CC50,[17]; [29],> 100 µM
same,TGI,[17]; read-out: TGI,> 100 µM
same,GI50,[17]; read-out: pGI50 (converted),8.51 µM
same,CC50,[17]; [30],> 100 µM
same,TGI,[17]; read-out: pTGI (converted),> 100 µM
same,growth at 0.1 µM,[18],103%
same,growth at 0.1 µM,[19],96%
same,growth at 0.01 µM,[20],95%
same,growth at 100 µM,[21],-22%
same,growth at 0.1 µM,[22],101%
same,growth at 0.01 µM,[23],100%
same,growth at 100 µM,[24],-69%
same,growth at 0.1 µM,[25],100%
same,GI50,[26]; read-out: GI50,1.75 µM
same,CC50,[26]; [29],> 100 µM
same,TGI,[26]; read-out: TGI,64.5 µM
same,GI50,[26]; read-out: pGI50 (converted),17.4 µM
same,CC50,[26]; [30],> 100 µM
same,TGI,[26]; read-out: pTGI (converted),64.6 µM
same,growth at 0.1 µM,[27],102%
same,growth at 0.01 µM,[28],93%
